pIC50: −log10 of the molar value. Read-outs that look alike come from different tables or passages of the source.
Molecular target: T1, APOL1 G1 (Homo sapiens, UniProt O14791, I384M/S342G)
T1 sequence (O14791 28-398 S342G/I384M): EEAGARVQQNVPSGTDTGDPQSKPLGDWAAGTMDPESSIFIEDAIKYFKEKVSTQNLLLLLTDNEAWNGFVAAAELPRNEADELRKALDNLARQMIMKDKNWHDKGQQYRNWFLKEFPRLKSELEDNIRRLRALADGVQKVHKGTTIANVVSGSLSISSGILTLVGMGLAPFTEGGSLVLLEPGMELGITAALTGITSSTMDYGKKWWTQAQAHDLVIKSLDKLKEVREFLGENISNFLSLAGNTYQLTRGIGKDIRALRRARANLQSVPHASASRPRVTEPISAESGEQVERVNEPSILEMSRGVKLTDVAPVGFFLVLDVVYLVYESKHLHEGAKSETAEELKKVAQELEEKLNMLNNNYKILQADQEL
Test: MultiTox-Fluor Multiplex Cytotoxicity Assay, tet-inducible APOL1 G1 T-REx-HEK293 cells
Format: cell-based
Set-up: expressed in transfected cells; host or cells: T-REx HEK293, clone G1 DC3.25 (pAAVS1-Puro-APOL1 G1)
Settings: for IC90: read-out: Multi-Tox Assay IC90; for pIC50: IP50 = IC50 for cell proliferation
Summary of the method: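 Over 24 h at 37 °C, compounds (10-point 3-fold series from 10 µM, duplicate) were co-incubated with 50 ng/mL tetracycline inducing APOL1 G1 in T-REx-HEK293 cells. Viability/cytotoxicity measured by MultiTox-Fluor as dead-to-live fluorescence ratio, expressed as percent of control between uninduced and induced wells and fitted.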

[1] = HEK293, Multi-Tox Assay, APOL1 variant (G0/G1/G2) of the HEK293 cells not given
[2] = Multi-Tox Assay, APOL1 variant not given
[3] = Multi-Tox Assay, APOL1 variant (G0/G1/G2) not stated in Table 46
[4] = Multi-Tox Assay, APOL1 variant not stated in Table 46

| SMILES | IC90 [1] [nM] | Multi-Tox Assay Max Activity (%) [2] [%] | IC90 [3] [nM] | Multi-Tox Assay Max Activity (%) [4] [%] | pIC50 [4] |
| --- | --- | --- | --- | --- | --- |
| CCC(O)Cn1cc([C@@H]2C[C@]3(C[C@H](C)N2)OCC(F)(F)c2cc(Cl)sc23)nn1 (stereo partly drawn) [Compound 325] | 50 to 500 | 98.0 | – | – | – |
| Cc1c(Cn2cc([C@@H]3C[C@]4(C[C@H](C)N3)OCC(F)(F)c3cc(Cl)sc34)nn2)cnn1C [Compound 326] | 50 to 500 | 97.0 | – | – | – |
| CC(C)N1CC(Cn2cc([C@@H]3C[C@]4(C[C@H](C)N3)OCC(F)(F)c3cc(Cl)sc34)nn2)CC1=O (stereo partly drawn) [Compound 327] | 50 to 500 | 98.0 | – | – | – |
| C[C@H]1C[C@@]2(C[C@@H](c3cn(CCC(N)=O)nn3)N1)OCC(F)(F)c1cc(Cl)sc12 [Compound 328] | 50 to 500 | 100.0 | – | – | – |
| C[C@H]1C[C@@]2(C[C@@H](c3cn(CC4(F)CCOCC4)nn3)N1)OCC(F)(F)c1cc(Cl)sc12 [Compound 329] | > 500 | 90.0 | – | – | – |
| CCn1cc(Cn2cc([C@@H]3C[C@]4(C[C@H](C)N3)OCC(F)(F)c3cc(Cl)sc34)nn2)cn1 [Compound 330] | 50 to 500 | – | – | – | – |
| C[C@H]1C[C@@]2(C[C@@H](c3cn(Cc4cocn4)nn3)N1)OCC(F)(F)c1cc(Cl)sc12 [Compound 331] | 50 to 500 | 98.0 | – | – | – |
| C[C@H]1C[C@@]2(C[C@@H](c3cn(Cc4ccccn4)nn3)N1)OCC(F)(F)c1cc(Cl)sc12 [Compound 332] | 50 to 500 | 96.0 | – | – | – |
| COc1cc(F)cc(Cn2cc([C@@H]3C[C@]4(C[C@H](C)N3)OCC(F)(F)c3cc(Cl)sc34)nn2)c1 [Compound 333] | 50 to 500 | 97.0 | – | – | – |
| Cc1ccc(Cn2cc([C@@H]3C[C@]4(C[C@H](C)N3)OCC(F)(F)c3cc(Cl)sc34)nn2)nc1 [Compound 334] | > 500 | 96.0 | – | – | – |
| COc1ccc(Cn2cc([C@@H]3C[C@]4(C[C@H](C)N3)OCC(F)(F)c3cc(Cl)sc34)nn2)cc1 [Compound 335] | > 500 | 96.0 | – | – | – |
| Cc1cc(Cn2cc([C@@H]3C[C@]4(C[C@H](C)N3)OCC(F)(F)c3cc(Cl)sc34)nn2)ccn1 [Compound 336] | 50 to 500 | – | – | – | – |
| Cc1nc(Cn2cc([C@@H]3C[C@]4(C[C@H](C)N3)OCC(F)(F)c3cc(Cl)sc34)nn2)oc1C [Compound 337] | 50 to 500 | – | – | – | – |
| Cc1nnc(Cn2cc([C@@H]3C[C@]4(C[C@H](C)N3)OCC(F)(F)c3cc(Cl)sc34)nn2)[nH]1 [Compound 339] | 50 to 500 | 97.0 | – | – | – |
| COCCOCCn1cc([C@@H]2C[C@]3(C[C@H](C)N2)OCC(F)(F)c2cc(Cl)sc23)nn1 [Compound 340] | 50 to 500 | 98.0 | – | – | – |
| Cc1nccn1CCCn1cc([C@@H]2C[C@]3(C[C@H](C)N2)OCC(F)(F)c2cc(Cl)sc23)nn1 [Compound 341] | > 500 | 98.0 | – | – | – |
| COCC(O)Cn1cc([C@@H]2C[C@]3(C[C@H](C)N2)OCC(F)(F)c2cc(Cl)sc23)nn1 (stereo partly drawn) [Compound 342] | 50 to 500 | 98.0 | – | – | – |
| C[C@H]1C[C@@]2(C[C@@H](c3cn(CC4CCCCO4)nn3)N1)OCC(F)(F)c1cc(Cl)sc12 (stereo partly drawn) [Compound 343] | 50 to 500 | 97.0 | – | – | – |
| C[C@H]1C[C@@]2(C[C@@H](c3cn(CCCS(C)(=O)=O)nn3)N1)OCC(F)(F)c1cc(Cl)sc12 [Compound 344] | 50 to 500 | – | – | – | – |
| CC(C)C(=O)NCCn1cc([C@@H]2C[C@]3(C[C@H](C)N2)OCC(F)(F)c2cc(Cl)sc23)nn1 [Compound 345] | 50 to 500 | – | – | – | – |
| C[C@H]1C[C@@]2(C[C@@H](c3cn(Cc4nc5ncccc5[nH]4)nn3)N1)OCC(F)(F)c1cc(Cl)sc12 [Compound 346] | 50 to 500 | – | – | – | – |
| C[C@H]1C[C@@]2(C[C@@H](c3cn(Cc4ccccc4S(C)(=O)=O)nn3)N1)OCC(F)(F)c1cc(Cl)sc12 [Compound 347] | 50 to 500 | 96.0 | – | – | – |
| COc1ccc(C(O)Cn2cc([C@@H]3C[C@]4(C[C@H](C)N3)OCC(F)(F)c3cc(Cl)sc34)nn2)cc1 (stereo partly drawn) [Compound 348] | > 500 | 97.0 | – | – | – |
| C[C@H]1C[C@@]2(C[C@@H](c3cn(Cc4n[nH]c5ccccc45)nn3)N1)OCC(F)(F)c1cc(Cl)sc12 [Compound 349] | > 500 | 91.0 | – | – | – |

| SMILES | IC90 [1] [nM] | Multi-Tox Assay Max Activity (%) [2] [%] | IC90 [3] [nM] | Multi-Tox Assay Max Activity (%) [4] [%] | pIC50 [4] |
| --- | --- | --- | --- | --- | --- |
| C[C@H]1C[C@@]2(C[C@@H](c3cn(Cc4ncnc5[nH]ccc45)nn3)N1)OCC(F)(F)c1cc(Cl)sc12 [Compound 350] | 50 to 500 | – | – | – | – |
| Cc1cc(C)nc(CCn2cc([C@@H]3C[C@]4(C[C@H](C)N3)OCC(F)(F)c3cc(Cl)sc34)nn2)c1 [Compound 351] | 50 to 500 | 98.0 | – | – | – |
| C[C@H]1C[C@@]2(C[C@@H](c3cn(Cc4ccc(C#N)nc4)nn3)N1)OCC(F)(F)c1cc(Cl)sc12 [Compound 352] | 50 to 500 | – | – | – | – |
| Cc1noc(C)c1Cn1cc([C@@H]2C[C@]3(C[C@H](C)N2)OCC(F)(F)c2cc(Cl)sc23)nn1 [Compound 353] | < 50 | 100.0 | – | – | – |
| C[C@H]1C[C@@]2(C[C@@H](c3cn(CCOc4ccccc4F)nn3)N1)OCC(F)(F)c1cc(Cl)sc12 [Compound 354] | 50 to 500 | – | – | – | – |
| C[C@H]1C[C@@]2(C[C@@H](c3cn(Cc4ccc(S(C)(=O)=O)cc4)nn3)N1)OCC(F)(F)c1cc(Cl)sc12 [Compound 355] | 50 to 500 | 98.0 | – | – | – |
| C[C@H]1C[C@@]2(C[C@@H](c3cn(CC4(CO)CC4)nn3)N1)OCC(F)(F)c1cc(Cl)sc12 [Compound 357] | 50 to 500 | – | – | – | – |
| C[C@H]1C[C@@]2(C[C@@H](c3cn(Cc4cnc5cnccn45)nn3)N1)OCC(F)(F)c1cc(Cl)sc12 [Compound 358] | < 50 | 98.0 | – | – | – |
| C[C@H]1C[C@@]2(C[C@@H](c3cn(CCCO)nn3)N1)OCC(F)(F)c1cc(Cl)sc12 [Compound 359] | < 50 | 98.0 | – | – | – |
| COc1ccc(Cn2cc([C@@H]3C[C@]4(C[C@H](C)N3)OCC(F)(F)c3cc(Cl)sc34)nn2)cn1 [Compound 360] | 50 to 500 | – | – | – | – |
| C[C@H]1C[C@@]2(C[C@@H](c3cn(CCO)nn3)N1)OCC(F)(F)c1cc(Cl)sc12 [Compound 361] | – | – | 50 to 500 | 98.0 | – |
| COc1ccc(Cn2cc([C@@H]3C[C@]4(C[C@H](C)N3)OCC(F)(F)c3cc(Cl)sc34)nn2)cc1F [Compound 362] | – | – | 50 to 500 | 98.0 | 6.30 to 7.30 |
| C[C@H]1C[C@@]2(C[C@@H](c3cn(C[C@@H](O)CO)nn3)N1)OCC(F)(F)c1cc(Cl)sc12 [Compound 363] | – | – | 50 to 500 | – | – |
| C[C@H]1C[C@@]2(C[C@@H](c3cn(CC(C)(C)O)nn3)N1)OCC(F)(F)c1cc(Cl)sc12 [Compound 364] | – | – | > 500 | 95.0 | 6.30 to 7.30 |
| C[C@H]1C[C@@]2(C[C@@H](c3cn(Cc4cncs4)nn3)N1)OCC(F)(F)c1cc(Cl)sc12 [Compound 365] | – | – | 50 to 500 | – | – |
| C[C@H]1C[C@@]2(C[C@@H](c3cn(Cc4ccc5nc(O)[nH]c5c4)nn3)N1)OCC(F)(F)c1cc(Cl)sc12 [Compound 366] | – | – | > 500 | 95.0 | 6.30 to 7.30 |
| C[C@H]1C[C@@]2(C[C@@H](c3cn(CCC(C)(C)O)nn3)N1)OCC(F)(F)c1cc(Cl)sc12 [Compound 367] | – | – | < 50 | – | – |
| C[C@H]1C[C@@]2(C[C@@H](c3cn(CC4CCC(=O)NC4)nn3)N1)OCC(F)(F)c1cc(Cl)sc12 (stereo partly drawn) [Compound 368] | – | – | > 500 | 96.0 | 6.30 to 7.30 |
| C[C@H]1C[C@@]2(C[C@@H](c3cn(CC#N)nn3)N1)OCC(F)(F)c1cc(Cl)sc12 [Compound 369] | – | – | > 500 | 98.0 | 6.30 to 7.30 |
| CC(CO)Cn1cc([C@@H]2C[C@]3(C[C@H](C)N2)OCC(F)(F)c2cc(Cl)sc23)nn1 (stereo partly drawn) [Compound 370] | – | – | 50 to 500 | – | 6.30 to 7.30 |
| COC(=O)C1([C@@H]2C[C@]3(C[C@H](C)N2)OCCc2cc(Cl)sc23)CC1 [Compound 372, methyl 1-[(2'S,6'S,7S)-2-chloro-6'-methyl-spiro[4,5-dihydrothieno[2,3-c]pyran-7,4'-piperidine]-2'-yl]cyclopropanecarboxylate] | – | – | > 500 | 92.0 | – |
| C[C@H]1C[C@@]2(C[C@@H](C3(N)CC3)N1)OCCc1cc(Cl)sc12 [Compound 373, 1-[(2'S,6'S,7S)-2-chloro-6'-methyl-spiro[4,5-dihydrothieno[2,3-c]pyran-7,4'-piperidine]-2'-yl]cyclopropanamine] | – | – | 50 to 500 | – | – |
| CC(=O)NC1([C@@H]2C[C@]3(C[C@H](C)N2)OCCc2cc(Cl)sc23)CC1 [Compound 379, N-[1-[(2'S,6'S,7S)-2-chloro-6'-methyl-spiro[4,5-dihydrothieno[2,3-c]pyran-7,4'-piperidine]-2'-yl]cyclopropyl]acetamide] | – | – | > 500 | 94.0 | – |

Reference: EP4810040A2, “INHIBITORS OF APOL1 AND METHODS OF USING SAME” (priority 2020, dated 2022)
